pEC50: −log10 of the molar value.
Assays:
[1] = tested on: cigarette smoke-induced cell accumulation and biomarkers in murine BALF; experiment: Cigarette smoke model; type: in vivo, mouse; settings: for % inhibition, Macrophages in BAL / % inhibition, Neutrophils in BAL / Cell numbers in BAL, Macrophages / Cell numbers in BAL, Neutrophils: mice, CS, intra-nasal; for Cell numbers in BAL, Macrophages / Cell numbers in BAL, Neutrophils: mean ± SEM; for Inhibition (%) of CXCL1 in BALF / Inhibition (%) of IL-17 in BALF / Inhibition (%) of MCP-1 in BALF / Inhibition (%) of MDA in BALF / Inhibition (%) of Osteopontin in BALF / Inhibition (%) of TNF α in BALF: with respect to tobacco
Description: A/J mice (males, 5 weeks old) were exposed to cigarette smoke (4% cigarette smoke, diluted with compressed air) for 30 min/day for 11 days using a Tobacco Smoke Inhalation Experiment System for small animals (Model SIS-CS; Sibata Scientific Technology, Tokyo, Japan). Test substances were administered once daily for 3 days after the final cigarette smoke exposure (intra-nasal dose comprising 35 μL of solution in 50% DMSO/isotonic saline).
At 12 hr after administration of the last dose, animals were anesthetized, the trachea was cannulated and bronchial alveolar lavage (BAL) was carried out by the instillation into and then withdawal from the lungs, of PBS (100 mL/kg). Total cell numbers in the BALF samples were measured using a haemocytometer under a phase-contrast microscope. The proportions of alveolar macrophages and neutrophils were determined by FACS analysis using anti-mouse MOMA2-FITC (macrophage) or anti-mouse 7/4 (neutrophil).
Cells were suspended in PBS and were incubated with anti-MOMA2-FITC (2 μg/mL, Catalogue no SM065F, Acris Antibodies GmbH, Herford, Germany) or anti-7/4-FITC (2 μg/mL, Catalogue no CL050F, Acris Antibodies GmbH, Herford, Germany) for 30 min at 30° C., and also counterstained with propidium iodide (2 μg/mL) to allow exclusion of necrotic cells. The cells were washed with PBS, and transferred to FACS tubes. Samples was set in a flow cytometer (ALTRA II; Beckman Coulter Japan, Tokyo, Japan), and a single-parameter FL2 [PMT2] (FITC) histogram with log x-axis was plotted to illustrate relative intensity of FITC.
Data files are stored for subsequent analysis using Kaluza analysis software (ver. 1.2) to calculate the proportion of each cell type. The levels of CXCL1(KC), MCP1, TNFα, IL-17 or osteopontin in BALF were determined using Quentikine® mouse KC, MCP1, TNFα, IL-17 or osteopontin ELISA kit (R&D systems, Inc., Minneapolis, Minn., USA). The presence of malondialdehyde was measured using OxiSelect® TBARS Assay Kit (MDA Quantitation; Cell Biolabs Inc, San Diego, Calif., USA).

PI3K δ = PI3K δ (Homo sapiens (Human), UniProt O00329); experiment: PI3K δ cell based assay: H2O2-induced Akt phosphorylation in d-U937 cells; settings: inhibition of induced Akt phosphorylation, H2O2 stimulus; read-out: REC50 values in d-U937 cells, H2O2 stimulus
Description: As a means of assessing PI3K δ activation in response to stimuli, the phosphorylation status of the protein, Akt, a downstream product of PI3Kδ, signaling was determined.
U937 cells, obtained from a human, leukemic, monocyte lymphoma cell line, were differentiated to macrophage-type cells by incubation with PMA (100 ng/mL) for 48 to 72 hr. Cells were then pre-incubated with either the test compound or vehicle for 2 hr and were then stimulated briefly by exposure to H2O2 (10 mM, 5-7 min) and the reaction stopped by replacing the media with 4% formaldehyde solution. […] After washing with buffer (PBS containing 0.1% Triton X-100), cells were incubated with an HRP-conjugated secondary antibody (Dako) and the resultant signal was determined colorimetrically (OD: 450 nm with a reference wavelength of 655 nm) using TMB substrate (substrate reagent pack supplied by R&D Systems, Inc.).
This reaction was stopped by the addition of H2SO4 solution (100 μL). […] After washing with buffer (PBS containing 0.1% Triton X-100) 1% SDS (100 μL) was added to each well and the plates were shaken lightly for 1 hr prior to measuring the absorbance at 595 nm (Varioskan® Flash, Thermo-Fisher Scientific). The measured OD450-655 readings were corrected for cell number by dividing the OD450-655 by the OD595 readings. The ratio of pAkt signal to total Akt signal was used to quantitate the extent of PI3K δ activation. […]

PI3K δ, sequence (O00329 whole entry): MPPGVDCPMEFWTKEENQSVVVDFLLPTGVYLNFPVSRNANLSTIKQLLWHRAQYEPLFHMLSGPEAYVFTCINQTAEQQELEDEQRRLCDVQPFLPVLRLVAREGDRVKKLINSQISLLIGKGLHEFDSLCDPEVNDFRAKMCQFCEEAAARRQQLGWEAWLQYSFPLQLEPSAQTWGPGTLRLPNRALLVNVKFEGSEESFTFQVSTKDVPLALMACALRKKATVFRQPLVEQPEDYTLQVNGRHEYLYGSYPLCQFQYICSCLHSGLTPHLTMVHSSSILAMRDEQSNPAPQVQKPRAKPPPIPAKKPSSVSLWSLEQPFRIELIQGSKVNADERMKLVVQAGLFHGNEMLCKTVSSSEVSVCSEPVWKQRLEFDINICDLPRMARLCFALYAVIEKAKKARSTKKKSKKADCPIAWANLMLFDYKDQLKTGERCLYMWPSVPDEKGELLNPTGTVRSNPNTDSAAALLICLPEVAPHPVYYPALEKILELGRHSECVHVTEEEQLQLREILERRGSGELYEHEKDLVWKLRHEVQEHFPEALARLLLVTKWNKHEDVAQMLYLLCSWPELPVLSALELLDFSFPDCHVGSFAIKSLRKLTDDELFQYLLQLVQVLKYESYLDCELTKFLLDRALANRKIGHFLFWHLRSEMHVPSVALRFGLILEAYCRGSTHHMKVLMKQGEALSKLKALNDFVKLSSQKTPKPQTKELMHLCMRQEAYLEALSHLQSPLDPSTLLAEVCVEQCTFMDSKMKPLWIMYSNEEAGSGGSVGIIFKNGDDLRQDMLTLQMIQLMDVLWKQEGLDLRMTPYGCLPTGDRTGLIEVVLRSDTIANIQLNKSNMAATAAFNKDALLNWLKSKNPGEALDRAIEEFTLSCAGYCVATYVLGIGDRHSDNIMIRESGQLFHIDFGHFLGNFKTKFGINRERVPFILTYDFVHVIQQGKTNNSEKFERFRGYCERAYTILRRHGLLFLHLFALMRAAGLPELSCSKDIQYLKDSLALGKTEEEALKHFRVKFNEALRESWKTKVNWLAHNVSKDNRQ
PI3K δ, sequence (P27986 whole entry partner): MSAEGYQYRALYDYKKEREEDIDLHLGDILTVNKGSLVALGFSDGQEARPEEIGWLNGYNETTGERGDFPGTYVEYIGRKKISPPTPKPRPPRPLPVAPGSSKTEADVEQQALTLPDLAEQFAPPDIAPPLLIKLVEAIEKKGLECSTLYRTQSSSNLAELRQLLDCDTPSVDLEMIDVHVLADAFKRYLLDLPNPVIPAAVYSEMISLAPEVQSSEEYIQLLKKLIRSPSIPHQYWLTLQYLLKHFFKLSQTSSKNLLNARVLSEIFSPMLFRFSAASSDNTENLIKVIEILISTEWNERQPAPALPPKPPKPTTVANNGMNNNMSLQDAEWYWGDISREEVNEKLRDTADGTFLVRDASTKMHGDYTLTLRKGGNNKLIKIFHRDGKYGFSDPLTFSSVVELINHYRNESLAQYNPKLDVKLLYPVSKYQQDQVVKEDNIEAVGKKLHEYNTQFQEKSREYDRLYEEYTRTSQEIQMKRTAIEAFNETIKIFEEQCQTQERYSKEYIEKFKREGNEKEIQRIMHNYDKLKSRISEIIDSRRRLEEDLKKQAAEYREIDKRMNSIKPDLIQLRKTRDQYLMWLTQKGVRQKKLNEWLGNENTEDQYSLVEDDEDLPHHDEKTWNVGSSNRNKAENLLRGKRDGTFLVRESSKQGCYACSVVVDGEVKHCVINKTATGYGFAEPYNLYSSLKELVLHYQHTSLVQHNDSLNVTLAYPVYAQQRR

COCCOCCOCC#Cc1cccc2nc(Cn3nc(-c4cc(O)cc(F)c4)c4c(N)ncnc43)n(Cc3ccccc3C(F)(F)F)c(=O)c12 [Compound (I), 2-((4-Amino-3-(3-fluoro-5-hydroxyphenyl)-1H-pyrazolo[3,4-d]pyrimidin-1-yl)methyl)-5-(3-(2-(2-methoxyethoxy)ethoxy)prop-1-yn-1-yl)-3-(2-(trifluoromethyl)benzyl)quinazolin-4(3H)-one]
potency versus compound A on cigarette-smoke induced cell accumulation in murine BALF (in words) ([1]; contemporaneous study): more potent inhibitor | % inhibition, Macrophages in BAL ([1]; 0.02 mg/mL): 32% | % inhibition, Neutrophils in BAL ([1]; 0.02 mg/mL): 26% | Cell numbers in BAL, Macrophages ([1]; 0.02 mg/mL): 13.6 ± 0.2 x10^4/mL | Cell numbers in BAL, Neutrophils ([1]; 0.02 mg/mL): 8.6 ± 0.2 x10^4/mL | % inhibition, Macrophages in BAL ([1]; 0.2 mg/mL): 63% | % inhibition, Neutrophils in BAL ([1]; 0.2 mg/mL): 54% | Cell numbers in BAL, Macrophages ([1]; 0.2 mg/mL): 9.5 ± 0.2 x10^4/mL | Cell numbers in BAL, Neutrophils ([1]; 0.2 mg/mL): 6.0 ± 0.1 x10^4/mL | % inhibition, Macrophages in BAL ([1]; 2 mg/mL): 79% | % inhibition, Neutrophils in BAL ([1]; 2 mg/mL): 68% | Cell numbers in BAL, Macrophages ([1]; 2 mg/mL): 7.4 ± 0.3 x10^4/mL | Cell numbers in BAL, Neutrophils ([1]; 2 mg/mL): 4.6 ± 0.1 x10^4/mL | Inhibition (%) of CXCL1 in BALF ([1]; Compound (I) 0.02 mg/mL): 32% | Inhibition (%) of IL-17 in BALF ([1]; Compound (I) 0.02 mg/mL): 27% | Inhibition (%) of MCP-1 in BALF ([1]; Compound (I) 0.02 mg/mL): 28% | Inhibition (%) of MDA in BALF ([1]; Compound (I) 0.02 mg/mL): 25% | Inhibition (%) of Osteopontin in BALF ([1]; Compound (I) 0.02 mg/mL): 22% | Inhibition (%) of TNF α in BALF ([1]; Compound (I) 0.02 mg/mL): 22% | Inhibition (%) of CXCL1 in BALF ([1]; Compound (I) 0.2 mg/mL): 52% | Inhibition (%) of IL-17 in BALF ([1]; Compound (I) 0.2 mg/mL): 41% | Inhibition (%) of MCP-1 in BALF ([1]; Compound (I) 0.2 mg/mL): 45% | Inhibition (%) of MDA in BALF ([1]; Compound (I) 0.2 mg/mL): 42% | Inhibition (%) of Osteopontin in BALF ([1]; Compound (I) 0.2 mg/mL): 44% | Inhibition (%) of TNF α in BALF ([1]; Compound (I) 0.2 mg/mL): 38% | Inhibition (%) of CXCL1 in BALF ([1]; Compound (I) 2 mg/mL): 71% | Inhibition (%) of IL-17 in BALF ([1]; Compound (I) 2 mg/mL): 60% | Inhibition (%) of MCP-1 in BALF ([1]; Compound (I) 2 mg/mL): 78% | Inhibition (%) of MDA in BALF ([1]; Compound (I) 2 mg/mL): 64% | Inhibition (%) of Osteopontin in BALF ([1]; Compound (I) 2 mg/mL): 63% | Inhibition (%) of TNF α in BALF ([1]; Compound (I) 2 mg/mL): 62% | pEC50 (PI3K δ): 8.13

From patent publication US9227977B2, “Phosphoinositide 3-kinase inhibitors” (RESPIVERT LTD., priority 2013, dated 2016)
